The test has as its target Retinol-binding protein 4 (Homo sapiens, UniProt P02753). The test can be described thus: Scintillation Proximity RBP4 Binding Assay. The procedure: Untagged human RBP4 purified from the urine of tubular proteinuria patients was purchased from Fitzgerald Industries International. It was biotinylated using the EZ-Link Sulfo-NHS-LC-Biotinylation kit from Pierce following the manufacturer's recommendations. […] Nonspecific binding was determined in the presence of 20 μM of unlabeled retinol. The reaction mix was assembled in the dark under dim red light. The plates were sealed with clear tape (TopSeal-A: 96-well microplate, PerkinElmer), wrapped in the aluminum foil, and allowed to equilibrate 6 hours at room temperature followed by overnight incubation at +4° C. Radiocounts were measured using a TopCount NXT counter (Packard Instrument Company).
(SPA uses beads or plates that emit light when radiolabelled molecules are held near them.)

What is called IC50 is the concentration that gives 50% inhibition. `O=C(c1c[nH]c2cnccc12)N1C[C@H]2C[C@@H](c3ccccc3C(F)(F)F)C[C@H]2C1` [US12168664, Compound 8a] showed an IC50 of over 3 µM.
The value for `O=C(c1c[nH]c2ccncc12)N1C[C@H]2C[C@@H](c3ccccc3C(F)(F)F)C[C@H]2C1` [US12168664, Compound 8b] was over 3 µM.

Values taken from BindingDB's records for patent US12168664 (Columbia University, 2024).
